Consider 18 molecules from patent US6372747B1, “Farnesyl protein transferase inhibitors” (Schering Corporation, priority 1998, dated 2002).

A word on the melting point: it is the temperature of the solid-liquid transition.

Turning to `CC(C)(CCNC(=O)[C@H]1CN(C2c3ccc(Cl)cc3CCc3cc(Br)cnc32)CCN1S(C)(=O)=O)n1ccnc1` (mixture of isomers) [Example 15], the melting point fell in the range of 107 to 110 °C.
Under `Cn1cncc1CCNC(=O)[C@H]1CN(C2c3ccc(Cl)cc3CCc3cc(Br)cnc32)CCN1C(=O)Nc1ccc(F)cc1` (single isomer, unassigned) [Example 27] stands 140.1 to 149.4 °C.
Under `Cn1cncc1CCNC(=O)[C@H]1CN(C2c3ccc(Cl)cc3CCc3cc(Br)cnc32)CCN1C(=O)NC(C)(C)C` (single isomer, unassigned) [Example 28] stands 128.1 to 135.2 °C; under `CC(C)NC(=O)N1CCN(C2c3ccc(Cl)cc3CCc3cc(Br)cnc32)C[C@@H]1C(=O)NCCc1cncn1C` (single isomer, unassigned) [Example 29], 128.1 to 133.4 °C.
Under `CC(C)OC(=O)N1CCN(C2c3ccc(Cl)cc3CCc3cc(Br)cnc32)C[C@@H]1C(=O)NCCc1cncn1C` (single isomer, unassigned) [Example 30] stands 120.3 to 126.1 °C; under `Cn1cncc1CCNC(=O)[C@H]1CN(C2c3ccc(Cl)cc3CCc3cc(Br)cnc32)CCN1C(=O)N1CCOCC1` (single isomer, unassigned) [Example 31], 136.4 to 138.6 °C.
`Cn1cncc1CCNC(=O)[C@H]1CN(C2c3ccc(Cl)cc3CCc3cc(Br)cnc32)CCN1C(=O)OC(C)(C)C` (single isomer, unassigned) [Example 32] displayed a melting point of 134.9 to 137.5 °C.
With `Cn1cncc1CCNC(=O)[C@H]1CN(C2c3ccc(Cl)cc3CCc3cc(Br)cnc32)CCN1S(C)(=O)=O` (single isomer, unassigned) [Example 33] the figure was 139 to 145.1 °C; with `Cn1cncc1CCNC(=O)[C@H]1CN(C2c3ccc(Cl)cc3CCc3cc(Br)cnc32)CCN1C(=O)c1ccc(F)cc1` (single isomer, unassigned) [Example 34], 144.9 to 148.7 °C.
As for `Cn1cncc1CCNC(=O)[C@H]1CN(C2c3ccc(Cl)cc3CCc3cc(Br)cnc32)CCN1C(=O)Cc1ccc(F)cc1` (single isomer, unassigned) [Example 35], the melting point is 132.5 to 139.7 °C.
With `Cn1cncc1CCNC(=O)[C@H]1CN(C2c3ccc(Cl)cc3CCc3cc(Br)cnc32)CCN1C(=O)Cc1cc[n+]([O-])cc1` (single isomer, unassigned) [Example 36] the figure was 168.9 to 172.3 °C.
Regarding `Cn1cncc1CCNC(=O)[C@H]1CN(C2c3ccc(Cl)cc3CCc3cc(Br)cnc32)CCN1C(=O)CC1CCN(C(=O)OC(C)(C)C)CC1` (single isomer, unassigned) [Example 37], the melting point was in the range of 141.7 to 143.2 °C.
`Cn1cncc1CCNC(=O)[C@H]1CN(C2c3ccc(Cl)cc3CCc3cc(Br)cnc32)CCN1C(=O)CC1CCNCC1` (single isomer, unassigned) [Example 38] yielded a melting point of 136.1 to 139.5 °C.
With `Cn1cncc1CCNC(=O)[C@H]1CN(C2c3ccc(Cl)cc3CCc3cc(Br)cnc32)CCN1C(=O)CC1CCN(C(N)=O)CC1` (single isomer, unassigned) [Example 39] the figure was 148.1 to 150.4 °C; with `Cn1cncc1CCN(Cc1ccccc1)C(=O)[C@H]1CN(C2c3ccc(Cl)cc3CCc3cc(Br)cnc32)CCN1C(=O)NC1CCCCC1` (single isomer, unassigned) [Example 60], 130 to 139 °C.
Under `Cn1cncc1CCN(Cc1ccccc1)C(=O)[C@H]1CN(C2c3ccc(Cl)cc3CCc3cc(Br)cnc32)CCN1C(=O)NC(C)(C)C` (single isomer, unassigned) [Example 61] stands 127 to 130 °C; under `Cn1cncc1CCN(Cc1ccccc1)C(=O)[C@H]1CN(C2c3ccc(Cl)cc3CCc3cccnc32)CCN1C(=O)OC(C)(C)C` (single isomer, unassigned) [Example 62], 93.1 to 99.8 °C.
With `CC(C)(CCNC(=O)[C@H]1CN(C2c3ccc(Cl)cc3CCc3cc(Br)cnc32)CCN1C(=O)OCc1ccccc1)n1ccnc1` (stereo partly drawn) [Example 3] the figure was 103 to 106 °C.
